Read-outs that look alike come from different tables or passages of the source.

In experiment [1] the target is T1, NcLPMO9C (Neurospora crassa, UniProt Q7SHI8).
T1 sequence (Q7SHI8 17-359): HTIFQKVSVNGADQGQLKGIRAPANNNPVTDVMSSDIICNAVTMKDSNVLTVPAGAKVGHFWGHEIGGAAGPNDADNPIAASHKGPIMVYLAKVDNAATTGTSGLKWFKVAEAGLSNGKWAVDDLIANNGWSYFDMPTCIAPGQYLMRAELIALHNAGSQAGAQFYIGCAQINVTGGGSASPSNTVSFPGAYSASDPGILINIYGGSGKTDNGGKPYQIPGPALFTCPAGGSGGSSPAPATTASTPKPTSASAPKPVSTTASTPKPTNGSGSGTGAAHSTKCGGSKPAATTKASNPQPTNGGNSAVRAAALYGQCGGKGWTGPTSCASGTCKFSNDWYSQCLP
The note with it: for peroxidase activity of LPMO at higher concentrations: >100 mM of the substance, 2,6-DMP and hydrocoerulignone assays; for Residual activity to 100 mM acetate buffer, Hydro-Coerulignone: pH 6.
Method: (§2) LPMO-activity assay using 2000 µM 2,6-DMP or 500 µM hydrocoerulignone were carried out in 100 mM sodium acetate buffer at pH 6.0, at 30 °C using 100 µM H2O2, at 469 nm and a reaction time of 300 s. For blank reactions, the same experiments were performed without adding LPMO. The resulting rate was subtracted from the rate with the addition of LPMO. One unit of LPMO activity is defined as the conversion of either 2 µmol 2,6-DMP or 1 µmol hydrocoerulignone or the formation of 1 µmol coerulignone (ε469 = 53,200 M^−1 cm^−1) per min under reaction conditions. For the inhibition tests, the 100 mM sodium acetate buffer at pH 6.0 was supplemented with 100 mM of the different compounds and the pH was checked before and after the measurements.
(§3) By measuring the LPMO activity in 100 mM sodium acetate buffer, we determined the maximum activity achievable for the applied conditions.

The target of experiment [2] is T1, NcLPMO9C. The experiment is described as follows: biochemical. The note with it: for IC50: IC50 values as summarised in the text, for both assays (2,6-DMP and hydrocoerulignone), peroxidase reaction; for remaining activity at 100000 µM: pH 6, read-out: Residual activity to 100 mM acetate buffer, Hydro-Coerulignone.
Method: as §2, §3
Experiment [3] concerns the target T1, NcLPMO9C. The conditions noted are these: - Ascorbic acid (blank); 4 h, 4 × 100 µM H2O2, 100 mM compound.
Method: NcLPMO9C (1 µM) was incubated with 2 mg mL^−1 PASC, either 1 mM ascorbic acid or 1 µM NcCDHIIA together with 10 mM lactose as reductant and 400 µM H2O2 (4 × 100 µM) as cosubstrate at a total volume of 1 mL. At the beginning and after every hour, 100 µM H2O2 was added to the reaction. The reaction tubes were closed and continuously mixed in the dark for a total reaction time of 4 h. Reactions were stopped by heating to 95 °C for 10 min. The remaining PASC was removed by centrifugation, and the supernatant was analyzed by HPLC. Soluble cello-oligomers (DP 1–6) were used as standards to quantify LPMO-released products. To test the effect of different buffers or inhibitors, 100 mM sodium acetate buffer, pH 6.0, was supplemented with 100 mM of the different compounds.
We analyzed cello-oligomeric product formation after PASC treatment with NcLPMO9C, which is released as a byproduct of cellulose oxidation. […] Conditions with different buffers and reducing agents were tested. In all experiments, LPMO, PASC and H2O2 were present. As a reducing agent, ascorbic acid was chosen, whereas blank reactions were carried out in the absence of ascorbic acid.
H2O2 was added four times every hour.
The target in experiment [4] is T1, NcLPMO9C. The note with it: for Rate (Light Intensity at 620 nm min^−1): 0.5 µM NcLPMO9C, 1 mM ascorbic acid, 100 µM H2O2, pH 6.0, acetic acid 200 mM, mean ± SD; for activity: pH 6.
Method: LPMO activity was measured by the attenuation of optical density at 620 nm at 30 °C in 100 mM sodium acetate, 100 mM sodium citrate, or 100 mM sodium phosphate buffer, pH 6.0. […] The pH was checked before and after the measurements. A total volume of 2.5 mL contained 100 mM of buffer, pH 6.0, 0.8 mg/mL PASC, 0.5 or 1.0 µM of NcLPMO9C, 1 mM ascorbic acid or 1 µM NcCDHIIA with 10 mM lactose. A 10 mm quartz cuvette with a magnetic stirrer was used to maintain a homogeneously mixed PASC suspension.
To measure the inhibition by oxalic acid, the change in light intensity per minute was calculated at different inhibitor concentrations. […] LPMO was reduced with ascorbic acid and mixed with H2O2 to measure the activity.
LPMO peroxygenase activity was tested on PASC using a turbidity assay. Reaction was started with H2O2 and rates were obtained from light-intensity decrease at 620 nm. Assay contained 0.5 µM (A) or 1.0 µM (B) NcLPMO9C, 0.8 mg mL^−1 PASC, 1 mM ascorbic acid and 100 µM H2O2, respectively. H2O2 was added after 30 s to the stirred cuvette and the rate calculated from 40 s up to 200 s, having a data interval for each point of 0.1 s. pH was checked after all measurements and data are expressed as mean values (±SE), from three independent repeats. IC50 values were obtained by a nonlinear curve fit and calculating the oxalic acid concentration of oxalic acid at 50% of the rate.
For a further experiment, the system named is NcCDHIIA. Description: Amplex Red–horseradish peroxidase assay, background H2O2 production by CDH. The format is biochemical, Neurospora crassa. The note with it: for Specific activity, Background: without LPMO, 1 µM NcCDHIIA, 10 mM lactose, 50 µM AmplexRed, 7 U mL-1 horseradish peroxidase. The protocol: (§1) The Amplex Red–horseradish peroxidase assay was used to measure the uncoupling reaction of NcLPMO9C that produces superoxide or H2O2. The activity of LPMO was measured in the presence of oxalic acid as an inhibitory compound.

Experiment [5] concerns the target T1, NcLPMO9C. Description: Amplex Red–horseradish peroxidase assay of the uncoupling reaction (H2O2 production) of LPMO. Format: biochemical. The arrangement: made in house; host or cells: Pichia pastoris X-33. The conditions noted are these: 1 µM NcLPMO9C, 1 µM NcCDHIIA, 10 mM lactose, 50 µM AmplexRed, 7 U mL-1 horseradish peroxidase; for Specific activity, NcLPMO9C - background: 100 mM sodium acetate buffer pH 6.0, without or with 100 mM oxalic acid; for Specific activity, NcLPMO9C: not background-corrected. The protocol: as §1

In the case of `[F-].[Na+]` [NaF], the “effect on the activity of the LPMO” value on NcLPMO9C [1] (peroxidase assays) is reported as “did not show any effect on the activity of the LPMO until very high concentrations were used”.
As for `N[C@@H](Cc1c[nH]cn1)C(=O)O` [Histidine], on NcLPMO9C [2], the IC50 (as a rule, the concentration at which inhibition is half-maximal) is ~1000 µM and the remaining activity at 100000 µM is 0.4 ± 0.2%. At NcLPMO9C [1], the “peroxidase activity of LPMO at higher concentrations” value (shortened to “peroxidase activity of LPMO”) is recorded as “nondetectable level”.
At NcLPMO9C [3], `O=C(O)CC(O)(CC(=O)O)C(=O)O` [Citric acid] returned a Total cello-oligomers produced of 17.3 µM, a cellobiose produced of 7.2 µM, a cellotetraose produced of 5.9 µM and a cellotriose produced of 4.2 µM. Besides, the “peroxidase activity of LPMO” value at NcLPMO9C [1] is listed as “nondetectable level”. Moreover, at NcLPMO9C [4], the “Rate (Light Intensity at 620 nm min^−1)” value is 0.014 ± 0.001 Light Intensity at 620 nm min^−1 and the activity came out at 8 ± 1%.
In the case of `CC(=O)C(=O)O` [Pyruvic acid], at NcLPMO9C [2], the remaining activity at 100000 µM is 4.1 ± 0.4%. On NcLPMO9C [3], this compound showed a Total cello-oligomers produced of 9.0 µM, a cellobiose produced of 5.6 µM and a cellotriose produced of 3.3 µM.
On to `O=CC=O` [Glyoxal], for which, on NcLPMO9C [1], the “Residual activity to 100 mM acetate buffer, Hydro-Coerulignone” value (shortened to “Residual activity”) was 43.9 ± 3.6%.
For the compound `O=P(O)(O)O` [Phosphoric acid], at NcLPMO9C [3], the Total cello-oligomers produced was determined as 14.8 µM, the cellobiose produced came to 6.9 µM, the cellotetraose produced is listed as 4.6 µM and the cellotriose produced was 3.3 µM. For the same compound, on NcLPMO9C [4], the “Rate (Light Intensity at 620 nm min^−1)” value is 0.107 ± 0.02 Light Intensity at 620 nm min^−1.
Consider `O=C(O)C(=O)O` [Oxalic acid], for which, on NcLPMO9C [2], the IC50 is ~1000 µM and the remaining activity at 100000 µM stood at 0.6 ± 0.1%. Also, at NcLPMO9C [3], the Total cello-oligomers produced came to 15.8 µM, the cellobiose produced amounted to 6.8 µM, the cellotetraose produced came to 5.3 µM and the cellotriose produced was 3.7 µM. Further, the “peroxidase activity of LPMO” value on NcLPMO9C [1] was “nondetectable level”. In addition, the “Rate (Light Intensity at 620 nm min^−1)” value at NcLPMO9C [4] is listed as 0.002 ± 0.001 Light Intensity at 620 nm min^−1. In addition, the “H2O2 production by NcCDHIIA” value in the experiment on NcCDHIIA (100 mM oxalic acid) is recorded as “not inhibited”. Besides, in the experiment on NcCDHIIA, the “Specific activity, Background” value was found to be 3.4 ± 0.1 U g-1. For the same compound, on NcLPMO9C [5], the “Specific activity, NcLPMO9C - background” value worked out at 0.1 ± 0.1 U g-1 and the “Specific activity, NcLPMO9C” value was determined as 3.5 ± 0.1 U g-1.
As to `CC(O)C(=O)O` (centres unmarked) [Lactic acid], on NcLPMO9C [3], the Total cello-oligomers produced amounted to 12.4 µM, the cellobiose produced is reported as 3.5 µM, the cellotetraose produced was determined as 5.4 µM and the cellotriose produced came to 3.6 µM. Further, at NcLPMO9C [4], the “Rate (Light Intensity at 620 nm min^−1)” value is recorded as 0.08 ± 0.02 Light Intensity at 620 nm min^−1 and the activity was 47 ± 13%.
`O=S(=O)([O-])[O-].[Na+].[Na+]` [Na2SO4]: the half-inhibitory concentration (IC50) at NcLPMO9C [1] (read-out: IC50 values as summarised in the text, for both assays (2,6-DMP and hydrocoerulignone), peroxidase reaction) was ~30000 µM.
Consider `O=CC(=O)O` [Glyoxylic acid], for which, at NcLPMO9C [1], the “Residual activity” value is listed as 1.1 ± 0.3%.
For the compound `c1c[nH]cn1` [Imidazole], at NcLPMO9C [1], the “Residual activity” value is on record as 72.2 ± 3.9%.
Take `CC(=O)O` [Acetic acid]: at NcLPMO9C [3], the Total cello-oligomers produced is 14.6 µM, the cellobiose produced turned out to be 4.2 µM, the cellotetraose produced is given as 6.2 µM and the cellotriose produced stood at 4.3 µM. Moreover, on NcLPMO9C [4], the “Rate (Light Intensity at 620 nm min^−1)” value is recorded as 0.14 ± 0.01 Light Intensity at 620 nm min^−1. Further, the “Specific activity, Background” value with NcCDHIIA is on record as 2.6 ± 0.1 U g-1. Besides, on NcLPMO9C [5], the “Specific activity, NcLPMO9C - background” value was 4.9 ± 0.1 U g-1 and the “Specific activity, NcLPMO9C” value is given as 7.5 ± 0.1 U g-1.

(Values after publication PMC9220355, “Inhibition of the Peroxygenase Lytic Polysaccharide Monooxygenase by Carboxylic Acids and Amino Acids” (Antioxidants, 2022).)
